# Patent US20250221405A1, “ROOT NODULE FORMATION-PROMOTING COMPOSITION, AND ROOT HAIR FORMATION-PROMOTING COMPOSITION” (KANEKA CORPORATION, priority 2022, published 2025)
# Tests used:
# Assay type in all cases: in vivo, soybean
# soybeans (Fukuyutaka) [1] = assay: Experimental Example 4: soil irrigation with biosurfactant and/or KVP, root nodule number and weight, root weight; conditions: with rhizobium materials
# Procedure: (§1) For each of the following treatments, to a mixture of rhizobium materials (rhizobium and azospirillum) mixed with water at a proportion of 10 g/L, SF, SL, or RL was added in the following amount to prepare a solution comprising the rhizobium materials and SF, SL, or RL (a composition for promoting root nodule formation).
# A 9 cm poly pot was filled with sterilized fertilizer-free culture soil (Heiwa) and seeded three seeds of soybeans (Fukuyutaka) in each pot.
# (§2) After seeding, the seeds were cultivated in a greenhouse set at 28° C. during the day (14h) and 18° C. at night (10h).
# (§3) Seven days after the seeding, the soybeans in each pot were thinned to one plant, and each pot was irrigated with 4.3 ml of the composition for promoting root nodule formation (in the treatment T1, a mixture of rhizobium materials (rhizobium and azospirillum) mixed with water at a proportion of 10 g/L).
# (§4) Twenty-one days after the irrigation, the roots were washed with water so as not to remove root nodules, the culture soil was removed, and then, the root nodules formed on the roots were collected.
# (§5) After the seeding, each pot was fertilized with ½ Hoagland solution (50 mL) once a week. In addition, experiments were conducted on eight pots (eight plants) in each treatment.
# A plurality of experiments were conducted by changing the type of the composition for promoting root nodule formation and the like. Tables 4-1 and 4-2 show the date of seeding, the date of irrigating, the date of investigating the number of root nodules, the composition for promoting root nodule formation, and the investigation result of the number of root nodules. Note that the number of root nodules is indicated by a relative value with Tl taken as 100, with a numerical value in parentheses indicating the average number of root nodules actually measured (pieces/plant). In addition, fresh root nodule weight means the weight of root nodules before drying on the day of collection and is indicated by a relative value with Tl taken as 100. Dried underground part weight means the weight of roots dried for 48 hours at 80° C. and indicated by a relative value with Tl taken as 100.
# soybeans (Fukuyutaka) [2] = assay: Experimental Example 3: seed coating with biosurfactant and/or KVP, number of root nodules; conditions: Table 3-1
# Procedure: A solution of SF, SL, or RL and/or KVP dissolved in water (a composition for promoting root nodule formation) as the following amount in each of the following treatments was prepared. The seeds of soybeans (Fukuyutaka) were coated using the solution in an amount of 800 μL/100 g seed to obtain coated seeds.
# (§6) A 9 cm poly pot was filled with culture soil and seeded with three coated seeds in each pot.
# (§7) After seeding, the coated seeds were cultivated in a greenhouse set at 28° C. during the day (14h) and 18° C. at night (10h).
# Seven days after the seeding, the soybeans in each pot were thinned to one plant, and each pot was irrigated with 4.3 mL of a mixture of rhizobium materials (rhizobium and azospirillum) mixed with water at a proportion of 10 g/L.
# as §4, §5
# A plurality of experiments were conducted by changing the type of the composition for promoting root nodule formation and the like. Tables 3-1 and 3-2 show the amounts of SF, SL, or RL and/or KVP in the composition for promoting root nodule formation and the investigation result of the number of root nodules. Note that the number of root nodules is indicated by a relative value with Tl taken as 100, with a numerical value in parentheses indicating the average number of root nodules actually measured (pieces/plant).
# soybeans (Fukuyutaka) [3] = assay: Experimental Example 2: soil irrigation with composition comprising rhizobium materials, number of root nodules
# Procedure: as §1, with “treatment,” for “treatments,”
# A 9 cm poly pot was filled with culture soil and seeded with three seeds of soybeans (Fukuyutaka) in each pot.
# as §2, §3, §4, §5
# (§8) A plurality of experiments were conducted by changing the type of the composition for promoting root nodule formation and the like. Tables 2-1 and 2-2 show the date of seeding, the date of irrigating, the date of investigating the number of root nodules, the composition for promoting root nodule formation, and the investigation result of the number of root nodules. Note that the number of root nodules is indicated by a relative value with T1 taken as 100, with a numerical value in parentheses indicating the average number of root nodules actually measured (pieces/plant).
# soybeans (Fukuyutaka) [4] = assay: Experimental Example 1: seed coating, number of root nodules; conditions: Table 1-1
# Procedure: A solution of SF, SL, or RL dissolved in water (a composition for promoting root nodule formation) as the following amount in each of the following treatments was prepared. The seeds of soybeans (Fukuyutaka) were coated using the solution in an amount of 800 μL/100 g seed to obtain coated seeds.
# as §6, §7
# Seven days after the seeding, the soybeans in each pot were thinned to one plant, and each pot was irrigated with 4.3 ml of a mixture of rhizobium materials (rhizobium and azospirillum) mixed with water at a proportion of 10 g/L.
# as §4
# After the seeding, each pot was fertilized with ½ Hoagland solution once a week. In addition, experiments were conducted on eight pots (eight plants) in each treatment.
# as §8, with “1-1” for “2-1”, “1-2” for “2-2”, “nodules, the amount of SF, SL, or RL in” for “nodules,”, “Tl” for “T1”
# [5] = Table 4-1, single agent diluted 1000 times
# [6] = Table 4-1, single agent diluted 5000 times
# [7] = Table 4-1, single agent diluted 10000 times
# [8] = seed coating SF 0.5 g/t seed (diluted 16000 times)
# [9] = seed coating SF 5 g/t seed (diluted 1600 times)
# [10] = Table 2-1, irrigation 4.3 ml, diluted 100 times
# [11] = Table 2-1, irrigation, diluted 500 times
# [12] = Table 2-1, irrigation, diluted 1000 times
# [13] = seed coating 0.1 g/t seed (diluted 80000 times), 21 days after rhizobium irrigation
# [14] = seed coating 1 g/t seed (diluted 8000 times)
# [15] = seed coating 5 g/t seed (diluted 1600 times)
# [16] = seed coating 10 g/t seed (diluted 800 times)
# [17] = seed coating 25 g/t seed (diluted 320 times)
# [18] = seed coating 50 g/t seed (diluted 160 times)
substance,measurement,setting,value
surfactin Na [SF],"Dried Underground Part Weight, relative value with T1 taken as 100",soybeans (Fukuyutaka) [1]; [5],101
same,"Fresh Root Nodule Weight, relative value with T1 taken as 100",soybeans (Fukuyutaka) [1]; [5],124
same,"Number of Root Nodules, average number actually measured",soybeans (Fukuyutaka) [1]; [5],19.6 pieces/plant
same,"Number of Root Nodules, relative value with T1 taken as 100",soybeans (Fukuyutaka) [1]; [5],114
same,"Dried Underground Part Weight, relative value with T1 taken as 100",soybeans (Fukuyutaka) [1]; [6],103
same,"Fresh Root Nodule Weight, relative value with T1 taken as 100",soybeans (Fukuyutaka) [1]; [6],121
same,"Number of Root Nodules, average number actually measured",soybeans (Fukuyutaka) [1]; [6],19.0 pieces/plant
same,"Number of Root Nodules, relative value with T1 taken as 100",soybeans (Fukuyutaka) [1]; [6],110
same,"Dried Underground Part Weight, relative value with T1 taken as 100",soybeans (Fukuyutaka) [1]; [7],99
same,"Fresh Root Nodule Weight, relative value with T1 taken as 100",soybeans (Fukuyutaka) [1]; [7],107
same,"Number of Root Nodules, average number actually measured",soybeans (Fukuyutaka) [1]; [7],18.0 pieces/plant
same,"Number of Root Nodules, relative value with T1 taken as 100",soybeans (Fukuyutaka) [1]; [7],104
same,"Number of Root Nodules, average number actually measured",soybeans (Fukuyutaka) [2]; [8],25.3 pieces/plant
same,"Number of Root Nodules, relative value with T1 taken as 100",soybeans (Fukuyutaka) [2]; [8],109
same,"Number of Root Nodules, average number actually measured",soybeans (Fukuyutaka) [2]; [9],26.9 pieces/plant
same,"Number of Root Nodules, relative value with T1 taken as 100",soybeans (Fukuyutaka) [2]; [9],116
same,"Number of Root Nodules, average number actually measured",soybeans (Fukuyutaka) [3]; [10],15.9 pieces/plant
same,"Number of Root Nodules, relative value with T1 taken as 100",soybeans (Fukuyutaka) [3]; [10],109
same,"Number of Root Nodules, average number actually measured",soybeans (Fukuyutaka) [3]; [11],16.3 pieces/plant
same,"Number of Root Nodules, relative value with T1 taken as 100",soybeans (Fukuyutaka) [3]; [11],111
same,"Number of Root Nodules, average number actually measured",soybeans (Fukuyutaka) [3]; [12],16.9 pieces/plant
same,"Number of Root Nodules, relative value with T1 taken as 100",soybeans (Fukuyutaka) [3]; [12],115
same,"Number of Root Nodules, average number actually measured",soybeans (Fukuyutaka) [4]; [13],15.4 pieces/plant
same,"Number of Root Nodules, relative value with T1 taken as 100",soybeans (Fukuyutaka) [4]; [13],105
same,"Number of Root Nodules, average number actually measured",soybeans (Fukuyutaka) [4]; [14],16.6 pieces/plant
same,"Number of Root Nodules, relative value with T1 taken as 100",soybeans (Fukuyutaka) [4]; [14],114
same,"Number of Root Nodules, average number actually measured",soybeans (Fukuyutaka) [4]; [15],16.6 pieces/plant
same,"Number of Root Nodules, relative value with T1 taken as 100",soybeans (Fukuyutaka) [4]; [15],114
same,"Number of Root Nodules, average number actually measured",soybeans (Fukuyutaka) [4]; [16],15.4 pieces/plant
same,"Number of Root Nodules, relative value with T1 taken as 100",soybeans (Fukuyutaka) [4]; [16],105
same,"Number of Root Nodules, average number actually measured",soybeans (Fukuyutaka) [4]; [17],16.8 pieces/plant
same,"Number of Root Nodules, relative value with T1 taken as 100",soybeans (Fukuyutaka) [4]; [17],115
same,"Number of Root Nodules, average number actually measured",soybeans (Fukuyutaka) [4]; [18],17.3 pieces/plant
same,"Number of Root Nodules, relative value with T1 taken as 100",soybeans (Fukuyutaka) [4]; [18],118
